Our source for the IC50 values is US12528818B2, “Compositions and methods for inhibition of RAS” (Leidos Biomedical Research, Inc., priority 2021, dated 2026).

The first assay deals with pERK in NCI-H358 cells. The assay is described as follows: Cell-based pERK HTRF assay (pERK inhibition in H358 cells). As to conditions: Homo sapiens, NCI-H358, 0.5 h, pERK inhibition IC50, NCI-H358 cells, 30 min incubation; read-out: PERK in H358 cell. The procedure:
On Day 1, cells (NCI-H358) were seeded into 96-well plates at 4×10^4 cells/well in complete growth media (RPMI, 10% FBS).
The source plate was created with compounds diluted in media at 5-fold the final assay concentration. […] 20 μL was transferred onto the cell plates (final volume in wells was 100 μL). Plates were harvested after 30 min incubation by aspirating media and adding kit-supplied 1× supplemented lysis buffer to all wells (75 μl per well). Plates were then placed on a plate shaker and incubated at 850 rpm for an additional 30 min.
Antibody mixture solution was prepared by diluting aliquoted d2 and Eu Cryptate antibodies 1:20 in kit supplied detection buffer, then mixed the diluted antibodies solutions (1:1 v:v).
Samples were homogenized by pipetting up and down and then transferred (16 μL of cell lysates) from the 96-well cell culture plate to two wells of the HTRF 384-well detection plate containing the antibody solution. Plates were centrifuged (524 g for 1 min) and allowed to incubate between 4 and 24 h at room temperature. Maximum signal is reached after 4 h incubation time and remains stable over a period of 24 hours. Therefore, readings can be made between 4 and 24 h of incubation.
On the technique in general: In TR-FRET formats the signal depends on donor and acceptor labels being close together.
Take `C=CC(=O)N1C[C@@H](Nc2nc(OCC34CCCN3CCC4)nc3c(F)c(-c4ccc(F)c5sc(N)nc45)c(Cl)cc23)[C@H]1C` [Compound 197]: the IC50 is greater than 1000 nM.

Turning to `C=CC(=O)N1CCC(N(CC)c2nc(OC[C@@H]3C[C@@H](OC)CN3C)nc3c(F)c(-c4ccc(F)c5sc(N)c(C#N)c45)c(C(F)(F)F)cc23)[C@H]1C` (some centres unmarked) [Compound 392], the IC50 was less than 100 nM.

`C=CC(=O)N1C[C@H](N(C)c2nc(OC[C@@]34CCCN3C[C@H](F)C4)nc3c(F)c(-c4ccc(F)c5sc(N)c(C#N)c45)ccc23)C[C@H]1C` [Compound 319]: the IC50 is less than 100 nM.

Consider `C=CC(=O)N1CC(Nc2nc(OC[C@@H]3CCCN3C)nc3c(F)c(-c4ccc(F)c5nc(N)sc45)c(Cl)cc23)C1` [Compound 90], for which the IC50 is greater than 1000 nM.

As to `C=CC(=O)N1CC[C@@H](N(C)c2nc(OC[C@@]34CCCN3C[C@H](F)C4)nc3cc(-c4ccc(F)c5sc(N)c(C#N)c45)c(C(F)(F)F)cc23)[C@H]1C` [Compound 354, 4-(4-(((2R,3R)-1-acryloyl-2-methylpyrrolidin-3-yl)(methyl)amino)-2-(((2R,7aS)-2-fluorotetrahydro-1H-pyrrolizin-7a(5H)-yl)methoxy)-6-(trifluoromethyl)quinazolin-7-yl)-2-amino-7-fluorobenzo[b]thiophene-3-carbonitrile], the IC50 is less than 100 nM.

For the compound `C=CC(=O)N1C[C@@H](F)[C@@H](N(C)c2nc(OC[C@@]34CCCN3C[C@H](F)C4)nc3c(F)c(-c4ccc(F)c5sc(N)nc45)ccc23)C1` [Compound 353], the IC50 is less than 100 nM.

Regarding `C=CC(=O)N1CC(Nc2nc(OC[C@@H]3CCCN3C)nc3c(F)c(-c4cccc5oc(N)nc45)c(Cl)cc23)C1` [Compound 88], the IC50 is greater than 1000 nM.

With `C=CC(=O)N1C[C@H](C)N(c2nc(N3CC(N4CC5(CC5)C4)C3)nc3c(F)c(-c4ccc(F)c5sc(N)c(C#N)c45)c(C(F)(F)F)cc23)C[C@H]1C` [Compound 338, 4-(2-(3-(5-azaspiro[2.3]hexan-5-yl)azetidin-1-yl)-4-((2S,5R)-4-acryloyl-2,5-dimethylpiperazin-1-yl)-8-fluoro-6-(trifluoromethyl)quinazolin-7-yl)-2-amino-7-fluorobenzo[b]thiophene-3-carbonitrile], the IC50 is less than 100 nM.

For the compound `C=CC(=O)N1CC[C@@H](N(CC)c2nc(OC[C@@]34CCCN3C[C@H](F)C4)nc3c(F)c(-c4ccc(F)c5sc(N)c(C#N)c45)c(C(F)(F)F)cc23)[C@H]1C` [Compound 403], the IC50 is less than 100 nM.

As to `C=CC(=O)N1CC[C@@H](N(CC)c2nc(OC[C@@]34CCCN3C[C@H](F)C4)nc3c(F)c(-c4ccc(F)c5sc(N)nc45)c(C(F)(F)F)cc23)C1` [Compound 257], the IC50 is less than 100 nM.

For `C=CC(=O)N1CCC(N(C)c2nc(OCCOC)nc3c(F)c(-c4ccc(F)c5sc(N)c(C#N)c45)ccc23)[C@H]1C` (some centres unmarked) [Compound 466], the IC50 is greater than 1000 nM.

On to `C=CC(=O)N1C[C@@H](F)[C@@H](N(C)c2nc(OC[C@@H]3C[C@@H](OC)CN3C)nc3cc(-c4ccc(F)c5sc(N)c(C#N)c45)c(C(F)(F)F)cc23)C1` [Compound 361], for which the IC50 was less than 100 nM.

In the case of `C=CC(=O)N1CCN(c2nc(OCC34CCCN3C[C@H](OC)C4)nc3c(F)c(-c4ccc(F)c5sc(N)nc45)c(C(F)(F)F)cc23)CC1` (some centres unmarked) [Compound 209], the IC50 is less than 100 nM.

`C=CC(=O)N1CCC(N(CC)c2nc(OC[C@@]34CCCN3C[C@H](F)C4)nc3c(F)c(-c4ccc(F)c5sc(N)c(C#N)c45)ccc23)[C@H]1COC` (some centres unmarked) [Compound 412]: the IC50 fell in the range of 100 to 1000 nM.

`CC#CC(=O)N(C)C1CN(c2nc(OCC34CCCN3CCC4)nc3c(F)c(-c4ccc(F)c5sc(N)nc45)c(Cl)cc23)C1` [Compound 172]: the IC50 was greater than 1000 nM.

`C=CC(=O)N1C[C@H](N(C)c2nc(OC[C@@]34CCCN3C[C@H](F)C4)nc3c(F)c(-c4ccc(F)c5sc(N)nc45)c(C(F)(F)F)cc23)C[C@@H]1C` [Compound 293]: the IC50 was less than 100 nM.

For the compound `C=CC(=O)N1CC[C@@H](N(C)c2nc(OC[C@@]34CCCN3C[C@H](F)C4)nc3c(F)c(-c4ccc(F)c5sc(N)nc45)c(C(F)(F)F)cc23)C1` (single isomer, unassigned) [Compound 239], the IC50 was less than 100 nM.

For `C=CC(=O)N1CCN(c2nc(OCC34CCCN3CC(C)(C)C4)nc3c(F)c(-c4ccc(F)c5sc(N)nc45)c(C(F)(F)F)cc23)CC1` (centres unmarked) [Compound 171, 1-(4-(7-(2-amino-7-fluorobenzo[d]thiazol-4-yl)-2-((2,2-dimethyltetrahydro-1H-pyrrolizin-7a(5H)-yl)methoxy)-8-fluoro-6-(trifluoromethyl)quinazolin-4-yl)piperazin-1-yl)prop-2-en-1-one], the IC50 was less than 100 nM.

For `C=C(F)C(=O)N1CCN(c2nc(OC[C@]34CCCN3C[C@H](F)C4)nc3c(F)c(-c4ccc(F)c5sc(N)nc45)c(C(F)(F)F)cc23)C[C@H]1C` [Compound 191], the IC50 lay in the range of 100 to 1000 nM.

Turning to `C=CC(=O)N1C[C@H](F)[C@@H](N(C)c2nc(OC[C@@]34CCCN3C[C@H](F)C4)nc3c(F)c(-c4ccc(F)c5sc(N)c(C#N)c45)c(C(F)(F)F)cc23)C1` [Compound 327], the IC50 was less than 100 nM.

Turning to `C=CC(=O)N1CCN(c2nc(OC[C@@]34CCCN3C[C@H](F)C4)nc3c(F)c(-c4ccc(F)c5sc(N)c(C#N)c45)c(C(F)(F)F)cc23)[C@@H](C)C1` [Compound 347], the IC50 was less than 100 nM.

As for `C=CC(=O)N1C[C@H](C)N(c2nc(OC[C@@]34CCCN3C[C@H](F)C4)nc3c(F)c(-c4ccc(F)c5sc(N)c(C#N)c45)c(C(F)(F)F)cc23)C[C@H]1C` (single isomer, unassigned) [Compound 313], the IC50 is less than 100 nM.

`C=CC(=O)N1C[C@H](C)N(c2nc(OC[C@@]34CCCN3C[C@H](F)C4)nc3cc(-c4ccc(F)c5sc(N)c(C#N)c45)c(C(F)(F)F)cc23)C[C@H]1C` [Compound 304]: the IC50 is less than 100 nM.

For the compound `C=CC(=O)N1CCC(N(C)c2nc(OC[C@@H]3C[C@@H](OC)CN3C)nc3c(F)c(-c4ccc(F)c5sc(N)c(C#N)c45)ccc23)[C@H]1C` (some centres unmarked) [Compound 430], the IC50 is less than 100 nM.

Turning to `C=CC(=O)N1CC(N(c2nc(OCC34CCCN3CCC4)nc3c(F)c(-c4ccc(F)c5sc(N)nc45)c(C(F)(F)F)cc23)C2CC2)C1` [Compound 152], the IC50 is greater than 1000 nM.

Regarding `C=CC(=O)N1C[C@@H]2C[C@H]1[C@@H]2N(C)c1nc(OC[C@@]23CCCN2C[C@H](F)C3)nc2c(F)c(-c3ccc(F)c4sc(N)nc34)c(C(F)(F)F)cc12` [Compound 282], the IC50 was greater than 1000 nM.

As for `C=CC(=O)N1CC(Nc2nc(OC[C@@H]3CCCN3C)nc3c(F)c(-c4ccc(F)c5sc(N)nc45)c(-c4ccoc4)cc23)C1` [Compound 93], the IC50 was greater than 1000 nM.

Turning to `C=CC(=O)N1CC[C@@H](N(C)c2nc(N3CC(N4CC5(CC5)C4)C3)nc3c(F)c(-c4ccc(F)c5sc(N)c(C#N)c45)c(C(F)(F)F)cc23)C1` [Compound 340], the IC50 is less than 100 nM.

Take `C=CC(=O)N1C[C@H](C)N(c2nc(OC[C@@]34CCCN3C[C@H](F)C4)nc3c(F)c(-c4ccc(F)c5sc(N)c(C#N)c45)c(C#N)cc23)C[C@H]1C` [Compound 324, 4-((2S,5R)-4-acryloyl-2,5-dimethylpiperazin-1-yl)-7-(2-amino-3-cyano-7-fluorobenzo[b]thiophen-4-yl)-8-fluoro-2-(((2R,7aS)-2-fluorotetrahydro-1H-pyrrolizin-7a(5H)-yl)methoxy)quinazoline-6-carbonitrile]: the IC50 was less than 100 nM.

Consider `C=CC(=O)N1CC[C@H](N(C)c2nc(OC[C@@]34CCCN3C[C@H](F)C4)nc3c(F)c(-c4ccc(F)c5sc(N)c(C#N)c45)c(F)cc23)C1` [Compound 336], for which the IC50 was 100 to 1000 nM.

Regarding `C=CC(=O)N1CCN(c2nc(OC[C@@]34CCCN3C[C@H](F)C4)nc3c(F)c(-c4ccc(F)c5sc(N)c(C#N)c45)c(C(F)(F)F)cc23)C[C@@H]1C` [Compound 329], the IC50 was less than 100 nM.

With `C=CC(=O)N1C[C@H](C)N(c2nc(OCC34CCCN3C[C@H](F)C4)nc3c(F)c(-c4ccc(F)c5sc(C(F)F)nc45)c(C(F)(F)F)cc23)C[C@H]1C` (some centres unmarked) [Compound 307], the IC50 is less than 100 nM.

`C=CC(=O)N1CC(Nc2nc(OCC34CCCN3CCC4)nc3c(F)c(-c4ccc(F)c5sc(N)nc45)c(C(F)(F)F)cc23)C1` [Compound 79]: the IC50 was greater than 1000 nM.

Turning to `CC#CC(=O)N1CCN(c2nc(OCC34CCCN3CC(C)(C)C4)nc3c(F)c(-c4ccc(F)c5sc(N)nc45)c(C(F)(F)F)cc23)CC1` (centres unmarked) [Compound 170], the IC50 is 100 to 1000 nM.

Turning to `C=CC(=O)N1[C@@H](C)CN(c2nc(OC[C@@]34CCCN3C[C@H](F)C4)nc3c(F)c(-c4ccc(F)c5sc(N)c(C#N)c45)c(C(F)(F)F)cc23)C[C@@H]1C` [Compound 321], the IC50 was less than 100 nM.

As to `CC#CC(=O)N1CC[C@@H]2[C@H]1CN2c1nc(OCC23CCCN2CCC3)nc2c(F)c(-c3ccc(F)c4sc(N)nc34)c(Cl)cc12` [Compound 118], the IC50 is greater than 1000 nM.

As to `C=CC(=O)N1CCN(c2nc(OC[C@@]34CCCN3C[C@H](F)C4)nc3c(F)c(-c4ccc(F)c5sc(N)nc45)c(C(F)(F)F)cc23)C[C@H]1C` [Compound 207], the IC50 was less than 100 nM.

Staying with this assay, now noted: pERK inhibition IC50, NCI-H358 cells, 30 min incubation; read-out: PERK in H358 cell.
As for `C=CC(=O)N1CC[C@@H](N(C)c2nc(OCC34CCCN3CCC4)nc3c(F)c(-c4ccc(F)c5sc(N)nc45)c(C(F)(F)F)cc23)C1` (atropisomer, axis not shown) [Compound 221], the IC50 is greater than 1000 nM.
